From US10774083B2, “Heterocyclic amide compound” (TAKEDA PHARMACEUTICAL COMPANY LIMITED, priority 2016, dated 2020)

Experiments:
[1] = test system: human ovarian cancer cells A2780; experiment: proliferation inhibitory activity against human ovarian cancer cell A2780 (CellTiter-Glo); type: cell-based; details: A2780, 72 h, 1 μM test compound, 3 days of culture, read-out: proliferation inhibitory rate (%) of A2780 cells
Outline: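 A2780 cells in RPMI-1640 with 10% FBS, compound added the day after seeding and cultured 3 days. Viability by CellTiter-Glo luminescence. Inhibition (%) calculated with cell-free wells as 100% inhibition.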

[2] = target: T1, human PRS protein (His-Avi-hEPRS (998-1512)) (Homo sapiens, UniProt P07814); experiment: PRS inhibitory activity ([32P]pyrophosphate exchange enzyme assay); type: biochemical; details: 300 nM test compound; read-out: inhibitory rate (%) of PRS
T1 construct: to construct His-Avi-hEPRS (998-1512) expression plasmid; His tag (N); Avi tag (N); TEV cleavage site (ENLYFQG, then S; inferred from the forward primer hEPRS-TEV-NheF) (N); made in house; host or cells: E. coli BL21(DE3)
T1 sequence (P07814 998-1512 limits assumed): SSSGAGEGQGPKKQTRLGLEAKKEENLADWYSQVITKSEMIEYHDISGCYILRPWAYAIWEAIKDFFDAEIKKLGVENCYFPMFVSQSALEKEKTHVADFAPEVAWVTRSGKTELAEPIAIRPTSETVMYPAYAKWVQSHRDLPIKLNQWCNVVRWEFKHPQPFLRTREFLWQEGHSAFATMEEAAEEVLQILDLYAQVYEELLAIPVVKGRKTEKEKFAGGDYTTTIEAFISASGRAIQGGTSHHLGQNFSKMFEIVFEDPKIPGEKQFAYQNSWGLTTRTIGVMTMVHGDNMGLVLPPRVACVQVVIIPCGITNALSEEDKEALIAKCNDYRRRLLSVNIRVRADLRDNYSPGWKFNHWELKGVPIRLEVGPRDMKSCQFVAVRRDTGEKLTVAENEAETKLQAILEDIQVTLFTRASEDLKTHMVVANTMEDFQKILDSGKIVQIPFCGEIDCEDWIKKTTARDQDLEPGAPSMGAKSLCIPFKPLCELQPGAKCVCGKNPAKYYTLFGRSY
Outline: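 Compound was pre-incubated 60 min with 40 nM His-Avi-hEPRS (998-1512) (stock, E. coli-expressed) in Tris pH 7.5/KCl/DTT/Tween/MgCl2. Reaction began with substrate mix containing 300 μM ATP, 160 μM L-proline, 400 μM [32P]pyrophosphate (stock levels) and ran 30 min at room temperature. Charcoal-bound radioactivity was counted; inhibition was relative to no-reaction control.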

- inhibition at 0.3 µM [2]: 101%
SMILES: Cc1cc(N2CC[C@@](C#N)(C3CC3)C2=O)cc(C(=O)NCc2cc(F)cc(-c3cnn(C)c3)c2)n1 [Example 159, 4-((3S)-3-cyano-3-cyclopropyl-2-oxopyrrolidin-1-yl)-N-(3-fluoro-5-(1-methyl-1H-pyrazol-4-yl)benzyl)-6-methylpyridine-2-carboxamide]
- inhibition at 1 µM [1]: 96%
